The record followed here is US10968200B2, “Salts of an LSD1 inhibitor and processes for preparing the same” (priority 2018, dated 2021).

Where a name gives a salt, the structure may show the parent alone. Bounds are passed on as bounds.

A word on the IC50: it is the point on the concentration scale where inhibition reaches its midpoint. Low values mean greater potency in that assay, high ones weaker potency in that assay.

Data set [1] addresses T1, LSD-1 enzyme (LSD1/KDM1A) (Homo sapiens, UniProt O60341).
T1 construct: purchased ENZO BML-SE544-0050
The data set can be described thus: LANCE LSD1/KDM1A histone demethylase biochemical assay. Conditions: 1 nM LSD-1 enzyme, 1 hour preincubation at 25° C., Biotin-labeled Histone H3 peptide substrate. The method, then: LANCE LSD1/KDM1A demethylase assay-10 μL of 1 nM LSD-1 enzyme (ENZO BML-SE544-0050) in the assay buffer (50 mM Tris, pH 7.5, 0.01% Tween-20, 25 mM NaCl, 5 mM DTT) were preincubated for 1 hour at 25° C. with 0.8 μL compound/DMSO dotted in black 384 well polystyrene plates. Reactions were started by addition of 10 μL of assay buffer containing 0.4 μM Biotin-labeled Histone H3 peptide substrate: ART-K(Me1)-QTARKSTGGKAPRKQLA-GGK(Biotin) SEQ ID NO:1 (AnaSpec 64355) and incubated for 1 hour at 25° C. Reactions were stopped by addition of 10 μL 1× LANCE Detection Buffer (PerkinElmer CR97-100) supplemented with 1.5 nM Eu-anti-unmodified H3K4 Antibody (PerkinElmer TRF0404), and 225 nM LANCE Ultra Streptavidin (PerkinElmer TRF102) along with 0.9 mM Tranylcypromine-HCl (Millipore 616431). After stopping the reactions plates were incubated for 30 minutes and read on a PHERAstar FS plate reader (BMG Labtech).

A short description of data set [2]: Competitive slurry experiment, stability relationship between Forms II-V. Type of data set: physicochemical. Conditions: competitive slurry of Forms II-V in methanol, 23-25° C., 65-75% humidity, XRPD after 4 h and 20 h. The method, then:
The transformation of Compound 1 di-HCl solid forms was evaluated in competitive slurry experiments in methanol at 23-25° C. and 65-75% humidity. The experiments were performed with a mixture of four polymorphs (Form II through Form V), according to the following procedure.
10.0 mg of Compound 1 di-HCl Form II was added to a saturated solution of Compound 1 di-HCl Form II in methanol (1.0 mL) and stirred to give a thin slurry. A mixture of Form III (10.29 mg), Form IV (10.39 mg), and Form V (10.95 mg) were added to the slurry. The mixture was stirred for 4 h at 25° C.
A portion of the mixture was filtered after 4 h. The filtered solids were analyzed by XRPD and determined to be Form II in addition to a minor amount of amorphous solid.
A portion of the mixture was filtered after 20 h. The filtered solids were analyzed by XRPD and determined to be Form II in addition to a minor amount of amorphous solid. The sample was then dried under vacuum at 46-48° C. for 36 h. The dried solids were analyzed by XRPD and determined to be Form II.

In the case of `N#CCC1(N2CCC(N[C@@H]3C[C@H]3c3ccccc3)CC2)CN(S(N)(=O)=O)C1` [Compound 1, 3-(cyanomethyl)-3-(4-{[(1R,2S)-2-phenylcyclopropyl]amino}piperidin-1-yl)azetidine-1-sulfonamide], the IC50 in data set [1] is ≤ 100 nM. Consider `N#CCC1(N2CCC(N[C@@H]3C[C@H]3c3ccccc3)CC2)CN(S(N)(=O)=O)C1` [Form II, 3-(cyanomethyl)-3-(4-{[(1R,2S)-2-phenylcyclopropyl]amino}piperidin-1-yl)azetidine-1-sulfonamide dihydrochloride], for which the “relative stability of solid forms” value in data set [2] is “most stable form”.
